Results on 14 molecules are retold here after patent US9403835B2, “Tetraaza-cyclopenta[a]indenyl and their use as positive allosteric modulators” (Merck Patent GmbH, priority 2011, dated 2016).

pEC50: −log10 of the molar value.

The target of series [1] is T1, muscarinic M1 receptor (Homo sapiens, UniProt P11229).
T1 construct: expressed in transfected cells; host or cells: CHO (M1-CHO cells)
T1 sequence (P11229 1-460): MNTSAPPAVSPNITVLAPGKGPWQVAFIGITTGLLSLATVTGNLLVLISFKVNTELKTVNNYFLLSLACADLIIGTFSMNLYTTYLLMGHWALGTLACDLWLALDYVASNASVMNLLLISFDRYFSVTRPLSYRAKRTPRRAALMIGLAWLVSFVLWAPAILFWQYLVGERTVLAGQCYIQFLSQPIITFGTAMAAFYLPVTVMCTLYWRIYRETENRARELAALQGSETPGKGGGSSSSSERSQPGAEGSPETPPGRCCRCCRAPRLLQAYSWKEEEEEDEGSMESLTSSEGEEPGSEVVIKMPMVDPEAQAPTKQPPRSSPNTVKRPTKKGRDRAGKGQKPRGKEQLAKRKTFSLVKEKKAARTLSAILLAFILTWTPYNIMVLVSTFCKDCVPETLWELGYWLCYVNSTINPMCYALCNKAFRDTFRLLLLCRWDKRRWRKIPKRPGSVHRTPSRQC
The experiment in a line: M1 PAM Assay (IP-One HTRF, IP1 in M1-CHO cells with EC20 of acetylcholine). It counts as cell-based. The settings on record: 1 hour at room temperature, IP1 readout. How it is done: M1-CHO cells are plated in culture medium (HAM's F12, P/S, 10% FCS) on the day before the experiment with 10 000 cells/well in a 384 well plate (3750 Corning White 384 w plate with lid). On the day of experiment, cells are washed with PBS and IPone buffer is added (glucose 5.5 mM, NaCl 146 mM, MgCl2 0.5 mM, HEPES 10 mM, LiCl 50 mM, CaCl2 1 mM, KCl 4.2 mM). Then diluted compounds (1% DMSO final concentration) are added together with EC20 of acetylcholine and incubated with the cells for 1 hour at room temperature. The intracellular concentration of IP1 is then measured using the IP-One HTRF assay from Cisbio.
On the technique in general: TR-FRET usually uses a lanthanide donor and a delayed reading to cut background.

One may read the melting point as the temperature of the solid-liquid transition. The pEC50 is the negative decadic logarithm of the EC50, by convention in mol/L. The molecule `Cc1nc2c3c(nn2c(C)c1Cl)CN(C(=O)c1ccccc1OCCN(C)C)C3` [Example 8, (6-chloro-5,7-dimethyl-1H,3H-2,4,7a,8-tetraaza-cyclopenta[a]inden-2-yl)-[2-(2-dimethylamino-ethoxy)-phenyl]-methanone] gave a melting point of 156 to 159 °C. For the same molecule, in series [1], the pEC50 was 6.00 to 6.70. For `CCOc1ccccc1C(=O)N1Cc2nn3c(C)c(Cl)c(C)nc3c2C1` [Example 10] the same measures were 164 to 167 °C and 6.00 to 6.70. For `CCCCOc1ccccc1C(=O)N1Cc2nn3c(C)c(Cl)c(C)nc3c2C1` [Example 11, (2-butoxy-phenyl)-(6-chloro-5,7-dimethyl-1H,3H-2,4,7a,8-tetraaza-cyclopenta[a]inden-2-yl)-methanone] the same measures were 167 to 169 °C and 6.00 to 6.70. The matching figures for `Cc1nc2c3c(nn2c(C)c1Cl)CN(C(=O)c1ccccc1OC(F)(F)F)C3` [Example 14, (6-chloro-5,7-dimethyl-1H,3H-2,4,7a,8-tetraaza-cyclopenta[a]inden-2-yl)-(2-trifluoromethoxy-phenyl)-methanone]: 179 to 181 °C and 6.00 to 6.70. In turn, `CSCCOc1ccccc1C(=O)N1Cc2nn3c(C)c(Cl)c(C)nc3c2C1` [Example 15, (6-chloro-5,7-dimethyl-1H,3H-2,4,7a,8-tetraaza-cyclopenta[a]inden-2-yl)-[2-(2-methylsulfanyl-ethoxy)-phenyl]-methanone] showed a melting point of 183 to 185 °C. Further, the pEC50 in series [1] was 6.00 to 6.70. Take `COc1c(F)cc(F)cc1C(=O)N1Cc2nn3c(C)c(Cl)c(C)nc3c2C1` [Example 16, (6-chloro-5,7-dimethyl-1H,3H-2,4,7a,8-tetraaza-cyclopenta[a]inden-2-yl)-(3,5-difluoro-2-methoxy-phenyl)-methanone]: the melting point fell in the range of 185 to 187 °C. Moreover, in series [1], the pEC50 is 6.00 to 6.70.

With `Cc1nc2c3c(nn2c(C)c1C)CN(C(=O)c1ccccc1OCCN(C)C)C3` [Example 22, [2-(2-dimethylamino-ethoxy)-phenyl]-(5,6,7-trimethyl-1H,3H-2,4,7a,8-tetraaza-cyclopenta[a]inden-2-yl)-methanone], the melting point lay in the range of 148 to 150 °C. Moreover, in series [1], the pEC50 is 6.00 to 6.70. The matching figures for `CCOc1c(F)cc(F)cc1C(=O)N1Cc2nn3c(C)c(Cl)c(C)nc3c2C1` [Example 28, (6-chloro-5,7-dimethyl-1H,3H-2,4,7a,8-tetraaza-cyclopenta[a]inden-2-yl)-(2-ethoxy-3,5-difluoro-phenyl)-methanone]: 153 to 155 °C and 5.70 to 6.00. The matching figures for `Cc1nc2c3c(nn2c(C)c1Cl)CN(C(=O)c1ccccc1OCC(C)C)C3` [Example 30, (6-Chloro-5,7-dimethyl-1H,3H-2,4,7a,8-tetraaza-cyclopenta[a]inden-2-yl)-(2-isobutoxy-phenyl)-methanone]: 184 to 187 °C and 5.70 to 6.00. In turn, `CC(C)Oc1ccccc1C(=O)N1Cc2nn3cc(Cl)cnc3c2C1` [Example 42, (6-chloro-1H,3H-2,4,7a,8-tetraaza-cyclopenta[a]inden-2-yl)-(2-isopropoxy-phenyl)-methanone] came in with a melting point of 160 to 161 °C. The molecule further gave a pEC50 in series [1] of 5.70 to 6.00. In turn, `CCOc1ccc(Br)cc1C(=O)N1Cc2nn3c(C)c(C)c(C)nc3c2C1` [Example 45, (5-bromo-2-ethoxy-phenyl)-(5,6,7-trimethyl-1H,3H-2,4,7a,8-tetraaza-cyclopenta[a]inden-2-yl)-methanone] returned a melting point of 208 to 215 °C. In addition, in series [1], the pEC50 was 5.70 to 6.00.

The molecule `Cc1nc2c3c(nn2c(C)c1Cl)CN(C(=O)c1ccccc1CN1CC(N(C)C)C1)C3` [Example 126, (6-chloro-5,7-dimethyl-1H,3H-2,4,7a,8-tetraaza-cyclopenta[a]inden-2-yl)-[2-(3-dimethylamino-azetidin-1-ylmethyl)-phenyl]-methanone] displayed a melting point of 159 to 162 °C.

Regarding `O=C(c1ccc(F)cc1OC(F)(F)C(F)F)N1Cc2nn3cc(Cl)cnc3c2C1` [Example 138, (6-chloro-1H,3H-2,4,7a,8-tetraaza-cyclopenta[a]inden-2-yl)-[4-fluoro-2-(1,1,2,2-tetrafluoro-ethoxy)-phenyl]-methanone], the melting point is 208 to 210 °C.

Take `Cc1nc2c3c(nn2c(C)c1Cl)CN(C(=O)c1ccccc1CN(CCN(C)C)CC(F)(F)F)C3` [Example 154, (6-chloro-5,7-dimethyl-1H,3H-2,4,7a,8-tetraaza-cyclopenta[a]inden-2-yl)-(2-{[(2-dimethylamino-ethyl)-(2,2,2-trifluoro-ethyl)-amino]-methyl}-phenyl)-methanone]: the melting point is 168 to 174 °C.
